Patent US9278058B2, “Melanin production inhibitor” (Shiseido Company, Ltd., priority 2012, dated 2016)

Key:
[1] = system: Mouse B16 melanoma cells; experiment: Cell proliferation test (alamar blue); format: cell-based; conditions: for No. of Cells (%): 3 days, solvent-only group = 100
Protocol: As will be described in detail in the subsequent examples, screening for aromatic components of the melanin formation inhibitor was carried out by allowing various candidate aromatics to act on B16 melanoma, and evaluating cytotoxicity and the ratio of the amount of melanin (%) in comparison with a control (addition of solvent only). Mouse B16 melanoma cells were disseminated in a 6-well plate at 100,000 cells/well. On the following day, a test substance solution (solvent: ethyl alcohol) was added and used in a cell proliferation test and melanin formation inhibition test. A nature identical synthetic aromatic in the form of phenylethyl cinnamate (Toyotama International Inc.) was used for the test substance, and it was used in the tests indicated below. After aspirating off the medium 3 days after adding the test substance solution, 1 ml of EMEM medium containing 10% alamar blue solution was added and allowed to react at 37° C. 30 minutes later, 100 μl were transferred to a […] followed by measurement of fluorescence at an excitation wavelength of 544 nm and measurement wavelength of 590 nm. The ratio of the number of cells (% number of cells) of a test substance addition group based on a value of 100 for a test substance non-addition group (addition of solvent only) was calculated by using that value as a relative value of the number of viable cells. A higher value for % number of cells means a lower level of cytotoxicity.

[2] = system: Mouse B16 melanoma cells; experiment: Melanin formation inhibition test; format: cell-based; conditions: for Ratio of Amount of Melanin (%): 3 days, solvent-only group = 100
Protocol: As will be described in detail in the subsequent examples, screening for aromatic components of the melanin formation inhibitor was carried out by allowing various candidate aromatics to act on B16 melanoma, and evaluating cytotoxicity and the ratio of the amount of melanin (%) in comparison with a control (addition of solvent only). Mouse B16 melanoma cells were disseminated in a 6-well plate at 100,000 cells/well. On the following day, a test substance solution (solvent: ethyl alcohol) was added and used in a cell proliferation test and melanin formation inhibition test. A nature identical synthetic aromatic in the form of phenylethyl cinnamate (Toyotama International Inc.) was used for the test substance, and it was used in the tests indicated below. The medium was aspirated off 3 days after addition of test substance, and after washing using a buffer (50 mM phosphate buffer, pH 6.8), 1 M NaOH solution was added to lyse the cells followed by measurement of absorbance at 475 nm. The ratio of the amount of melanin (%) of a test substance addition group based on a value of 100 for a test substance non-addition group (addition of solvent only) was calculated using that value as a relative value of the amount of melanin. A lower value for the ratio of the amount of melanin means higher melanin formation inhibitory effects.

[3] = test substance final concentration 1 ppm
[4] = test substance final concentration 2 ppm

SMILES: O=C(/C=C/c1ccccc1)OCCc1ccccc1 [Phenylethyl Cinnamate, 2-Phenylethyl 3-phenyl • propenoate]
- cytotoxicity (in words) ([1]; summary of Table 1 results): hardly any cytotoxicity
- No. of Cells (%) [1, 3]: 94%
- No. of Cells (%) [1, 4]: 92%
- melanin formation inhibitory effects (in words) ([2]; summary of Table 1 results): superior melanin formation inhibitory effects
- Ratio of Amount of Melanin (%) [2, 3]: 82%
- Ratio of Amount of Melanin (%) [2, 4]: 74%
